{"source": "patent US9562082B2", "about": "“Production of glycoproteins with low N-glycolylneuraminic acid (Neu5Gc) content” (LEK Pharmaceuticals D.D., priority 2009, dated 2017)", "assay_type_in_all_cases": "cell-based, Chinese hamster", "key": {"Recombinant CHO cells [1]": {"test_system": "Recombinant CHO cells", "experiment": "Neu5Gc content of glycoprotein secreted by CHO cells cultivated with medium additives (RP-HPLC of DMB-labelled sialic acids)", "description": "Recombinant CHO cells expressing high titres of the glycosylated human glycoproteins were cultivated in suspension culture using rich in-house standard medium without additives according to the invention. After 2 weeks of passages, the cells were first harvested and subsequently inoculated into the same medium, however, supplemented with a range of DMSO concentrations from 0.25% to 1.50% (w/v). The effect of DMSO on growth, productivity, degree of sialylation, and Neu5Gc content was studied.\n“One factor at the time”-experiments with different DMSO concentrations at 37° C. and 33° C., respectively, were performed at first in an attempt to determine the DMSO concentration and temperature which are best to minimise the Neu5Gc content on the glycoproteins secreted. To study the interaction between the parameters (i) DMSO concentration, (ii) time of DMSO addition, and (iii) time of the temperature shift (from 37° C. to 33° C.), further experiments were performed with the Design-Expert/Design-Ease programme (Stat-Ease, Inc., Minneapolis, Minn., USA) using the response surface method. Parameters (i), (ii), and (iii) were chosen as numeric factors and the axial points were set slightly out of already known ranges in order to cover a wide design space. One replicate on axial points, one replicate on factorial points and 4 centre points were performed. The results were analysed using the Design of Expert (DOE) software (Design-Expert, Version 7.1). The results of the shake flask experiments were confirmed in the Biostat®B bioreactor (Sartorius, B. Braun Biotech International, Germany). Exponentially growing cells were taken from cell culture flasks having a surface area of 225 cm^2 (Corning®Costar®). A Biostat®B bioreactor with a working volume of 5 litres was inoculated with 2×10^5 cells/ml. Cells were cultivated in a batch mode under standard conditions (37° C., pH 7.0, dissolved oxygen concentration (DOT) 50%) in the rich in-house standard medium supplemented with 0.75% (w/v) DMSO.\nIn order to study the effect of key intermediates of the metabolic pathway leading to the sialylation of the glycoproteins and consequently to the conversion of Neu5Ac to Neu5Gc, a two factorial minimal resolution IV design, which allows for the estimation of the main effects, was established. Said design allowed the determination which of the components NAcMan, NAcGlc, Man, Fru, and Gal has/have an impact on the degree of sialylation and conversion of Neu5Ac to Neu5Gc. To confirm the results from the DOE findings, the production medium was enriched with 8.75 mM NAcMan and 8.75 mM NAcGlc in combination with manganese (Mn^2+) salts in different concentrations, e.g., in the concentrations mentioned earlier in this application.\nAt the end of the batch culture the cells were removed. The glycoproteins were purified from the remaining harvests by means of immuno-affinity chromatography. Briefly, up to 2 mg of each of the glycoproteins per ml of the chromatographic resin (20-500 ml of the harvest) were loaded onto the column. Elution of the glycoproteins was performed with 0.1 M Na-phosphate buffer, pH 2.5. By adding 1 M Na-phosphate buffer, pH 7.5 (made up by a combination of Na2H-phosphate and NaH2-phosphate), the pH of the eluate was immediately adjusted to 7 and then stored for further analysis at below −60° C.\nSialic acids (Neu5Gc, Neu5Ac, Neu-5,7Ac2, Neu5Gc9Ac, Neu-5,9Ac2, Neu-5,8,9Ac3) were differentiated using highly sensitive RP-HPLC. Enzymatic desialylation with neuraminidase (a2-3,6,8,9-neuraminidase (Sialidase) from Arthrobacter ureafaciens, Roche, USA) released sialic acids. The released sialic acids were labelled with the fluorescent dye 1,2-diamino-4,5-methylenedioxybenzene (DMB). DMB-labelling is non-selective and therefore provides a pool of labelled sialic acid derivates in stoichiometric amounts. Derivates of the DMB-labelled sialic acids were separated on an RP-HPLC column using isocratic elution. […]"}, "Recombinant CHO cells [2]": {"test_system": "Recombinant CHO cells", "experiment": "Specific growth rate", "details": "DMSO 0.75, temperature 37", "experimental": "The specific growth rate was calculated following Equation 2 and represents the overall biomass accumulation under the growth curve from the beginning to the end of the batch process (expressed as a logarithmic value per day (day^−1)). Specific growth rate=ln(X2/X1)/(t2−t1) Equation 2 (X1 is the number of viable cells on day 0 and X2 the number of cells at the end of the repeated batches, respectively. t1 is time 0, and t2 is time 7 or the end day of the process, respectively.)"}, "Recombinant CHO cells [3]": {"test_system": "Recombinant CHO cells", "experiment": "Cell viability by trypan blue exclusion", "details": "8 day batch cultures, all DMSO concentrations, times of addition and temperatures tested", "experimental": "Cell viability was determined by the trypan blue exclusion method. The cell concentration was determined using a Vi-CELL™ Series Cell Viability Analyzer (Beckman Coulter, Fullerton, Calif., USA). Glucose, lactate, glutamine, and ammonia (NH4^+) concentrations were measured during the growth phase using a BioProfile Analyzer for mammalian cell culture (BioProfile 100 plus, Nova Biomedical, Waltham, USA). Additionally, oxygen and […] concentrations were monitored daily using pHOx (Stat Prophile pHOx Basic, Nova Biomedical, Waltham, USA). Secreted glycoprotein concentrations were quantified by enzyme linked immunosorbent assay (ELISA), and the titres were expressed in μg/ml.\nInitially, the inventor avoided the addition of DMSO to the cell culture at the beginning of the bioprocess, because […] speculated that such addition might not be optimal, since the cells had no time for an optimal lag phase-growth (adaptation). […] Viable cell density and viability of the cells were measured in the middle and at the end of that period. The final titre (concentration of each glycoprotein in the culture medium) was measured in the supernatants with ELISA. […] The content of Neu5Gc on the purified glycoproteins was determined, and the acidic isoform distribution reflecting the degree of sialylation was measured with AEX."}}}
{"smiles": "C[S+](C)[O-]", "note": "[DMSO, dimethyl sulfoxide]", "values": [{"measurement": "average Neu5Gc content for all glycoproteins tested", "setting": "Recombinant CHO cells [1]; 0.25% DMSO", "value": 1.46, "unit": "%"}, {"measurement": "average Neu5Gc content for all glycoproteins tested", "setting": "Recombinant CHO cells [1]; 0.5% DMSO", "value": 1.17, "unit": "%"}, {"measurement": "content of Neu5Gc lowered by", "setting": "Recombinant CHO cells [1]; 0.75% (w/v) DMSO, 5 litre bioreactor batch, vs batch without DMSO", "value": "50-60%"}, {"measurement": "average Neu5Gc content for all glycoproteins tested", "setting": "Recombinant CHO cells [1]; 0.75% DMSO", "value": 0.93, "unit": "%"}, {"measurement": "average Neu5Gc content for all glycoproteins tested", "setting": "Recombinant CHO cells [1]; 1% DMSO", "value": 0.88, "unit": "%"}, {"measurement": "average Neu5Gc content for all glycoproteins tested", "setting": "Recombinant CHO cells [1]; 1.25% DMSO", "value": 0.79, "unit": "%"}, {"measurement": "Neu5Gc content", "setting": "Recombinant CHO cells [1]; darbepoetin alfa, 0.75% (w/v) DMSO, FIG. 1b", "value": "about 0.9%"}, {"measurement": "content of Neu5Gc", "setting": "Recombinant CHO cells [1]; darbepoetin alfa, bioreactor batch process, 0.75% (w/v) DMSO", "value": "about 1%"}, {"measurement": "content of Neu5Gc", "setting": "Recombinant CHO cells [1]; darbepoetin alfa, shake flask batch process, 0.75% (w/v) DMSO", "value": "about 0.8%"}, {"measurement": "Specific growth rate, DOE point prediction", "setting": "Recombinant CHO cells [2]", "value": 0.54, "unit": "day⁻¹"}, {"measurement": "final cell viability", "setting": "Recombinant CHO cells [3]", "value": "above 97.5%"}]}
